Measured values published in PubChem BioAssay (NCI).
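Interpolation was linear, between the two tested concentrations surrounding the appropriate level; five concentrations were tested over 48 hours in 96-well plates. The concentration for full growth arrest is given as TGI.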

Experiments:
Assay in all cases: NCI anticancer screen, dose series, 48 h
[1] = system: 786-0 renal
[2] = system: SNB-75 CNS
[3] = system: SF-295 CNS
[4] = system: HL-60(TB) leukemia
[5] = system: SR leukemia
[6] = system: K-562 leukemia
[7] = system: HS 578T breast
[8] = system: IGROV1 ovarian
[9] = system: SK-MEL-2 melanoma
[10] = system: OVCAR-4 ovarian
[11] = system: UO-31 renal
[12] = system: HCT-15 colon
[13] = system: UACC-257 melanoma
[14] = system: OVCAR-8 ovarian
[15] = system: MOLT-4 leukemia
[16] = system: OVCAR-5 ovarian
[17] = system: LOX IMVI melanoma
[18] = system: OVCAR-3 ovarian
[19] = system: NCI-H460 lung
[20] = system: RPMI-8226 leukemia
[21] = system: BT-549 breast
[22] = system: M14 melanoma
[23] = system: SNB-19 CNS
[24] = system: MALME-3M melanoma
[25] = system: U251 CNS
[26] = system: A549 NSCLC
[27] = system: COLO 205 colon
[28] = system: KM12 colon
[29] = system: SW-620 colon
[30] = system: MDA-N
[31] = system: HOP-92 NSCLC
[32] = system: SF-268 CNS
[33] = system: NCI-H226 lung
[34] = system: RXF 393 renal
[35] = system: NCI-H522 lung
[36] = system: TK-10 renal
[37] = system: HCC-2998 colon
[38] = system: SK-MEL-28 melanoma
[39] = system: SN12C renal
[40] = system: MCF7 breast
[41] = system: ACHN renal
[42] = system: MDA-MB-435
[43] = system: CCRF-CEM leukemia
[44] = system: T-47D breast
[45] = system: UACC-62 melanoma
[46] = system: HT29 colon
[47] = system: SK-MEL-5 melanoma
[48] = system: NCI-H23 lung
[49] = system: MDA-MB-231 breast
[50] = system: DU-145 prostate
[51] = system: HCT-116 colon
[52] = system: SF-539 CNS
[53] = system: PC-3 prostate
[54] = system: SK-OV-3 ovarian
[55] = system: A498 renal
[56] = system: HOP-62 NSCLC
[57] = system: NCI/ADR-RES ovarian
[58] = system: CAKI-1 renal
[59] = system: EKVX NSCLC

CCOC(=O)c1c(SCCN2CCOCC2)n(-c2ccccc2)c(=S)n(-c2ccccc2)c1=O
TGI [1]: 46 µM
TGI [2]: > 100 µM
TGI [3]: 61.2 µM
TGI [4]: 49.2 µM
TGI [5]: 48.2 µM
TGI [6]: 38 µM
TGI [7]: 87.4 µM
TGI [8]: > 100 µM
TGI [9]: > 100 µM
TGI [10]: > 100 µM
TGI [11]: > 100 µM
TGI [12]: 45.7 µM
TGI [13]: 48.1 µM
TGI [14]: > 100 µM
TGI [15]: 92.5 µM
TGI [16]: > 100 µM
TGI [17]: 33.3 µM
TGI [18]: > 100 µM
TGI [19]: > 100 µM
TGI [20]: 94.1 µM
TGI [21]: > 100 µM
TGI [22]: > 100 µM
TGI [23]: > 100 µM
TGI [24]: > 100 µM
TGI [25]: > 100 µM
TGI [26]: > 100 µM
TGI [27]: > 100 µM
TGI [28]: > 100 µM
TGI [29]: 41.6 µM
TGI [30]: > 100 µM
TGI [31]: > 100 µM
TGI [32]: > 100 µM
TGI [33]: > 100 µM
TGI [34]: 33.9 µM
TGI [35]: > 100 µM
TGI [36]: > 100 µM
TGI [37]: > 100 µM
TGI [38]: 53.8 µM
TGI [39]: > 100 µM
TGI [40]: 41.5 µM
TGI [41]: > 100 µM
TGI [42]: > 100 µM
TGI [43]: 99 µM
TGI [44]: > 100 µM
TGI [45]: > 100 µM
TGI [46]: 34.9 µM
TGI [47]: 90.1 µM
TGI [48]: 92.3 µM
TGI [49]: > 100 µM

O=C(CC(=O)Nc1ccccc1)NNC(c1cc(N=Nc2ccc(Br)cc2)ccc1O)P(O)O (centres undefined)
TGI [1]: > 10 µM
TGI [2]: > 10 µM
TGI [50]: > 10 µM
TGI [3]: > 10 µM
TGI [4]: 1.12 µM
TGI [5]: > 10 µM
TGI [6]: > 10 µM
TGI [7]: > 10 µM
TGI [8]: > 10 µM
TGI [9]: > 10 µM
TGI [10]: > 10 µM
TGI [11]: > 10 µM
TGI [12]: > 10 µM
TGI [13]: > 10 µM
TGI [14]: > 10 µM
TGI [15]: 4.15 µM
TGI [16]: > 10 µM
TGI [17]: > 10 µM
TGI [18]: > 10 µM
TGI [19]: > 10 µM
TGI [51]: 5.64 µM
TGI [20]: > 10 µM
TGI [52]: > 10 µM
TGI [21]: > 10 µM
TGI [22]: 3.84 µM
TGI [23]: > 10 µM
TGI [24]: > 10 µM
TGI [25]: > 10 µM
TGI [26]: > 10 µM
TGI [27]: > 10 µM
TGI [28]: > 10 µM
TGI [29]: > 10 µM
TGI [30]: > 10 µM
TGI [31]: > 10 µM
TGI [32]: > 10 µM
TGI [33]: 9.43 µM
TGI [53]: > 10 µM
TGI [34]: > 10 µM
TGI [35]: > 10 µM
TGI [36]: > 10 µM
TGI [37]: > 10 µM
TGI [38]: > 10 µM
TGI [39]: > 10 µM
TGI [40]: > 10 µM
TGI [54]: > 10 µM
TGI [41]: > 10 µM
TGI [42]: > 10 µM
TGI [43]: 8.25 µM
TGI [55]: 8.72 µM
TGI [56]: > 10 µM
TGI [44]: > 10 µM
TGI [57]: > 10 µM
TGI [58]: > 10 µM
TGI [45]: 9.13 µM
TGI [46]: > 10 µM
TGI [47]: > 10 µM
TGI [48]: > 10 µM
TGI [49]: > 10 µM

COc1ccc(OC)c2sc(N3C(=O)/C(=C/c4cccc([N+](=O)[O-])c4)N=C3c3ccccc3)nc12
TGI [1]: > 100 µM
TGI [2]: > 100 µM
TGI [50]: > 100 µM
TGI [3]: > 100 µM
TGI [4]: 59.4 µM
TGI [5]: 70.3 µM
TGI [6]: 63.7 µM
TGI [7]: > 100 µM
TGI [8]: > 100 µM
TGI [9]: > 100 µM
TGI [11]: > 100 µM
TGI [12]: > 100 µM
TGI [13]: > 100 µM
TGI [14]: > 100 µM
TGI [15]: 47.4 µM
TGI [16]: > 100 µM
TGI [17]: 62.1 µM
TGI [18]: > 100 µM
TGI [19]: > 100 µM
TGI [51]: > 100 µM
TGI [20]: 61.2 µM
TGI [52]: > 100 µM
TGI [21]: > 100 µM
TGI [22]: > 100 µM
TGI [23]: > 100 µM
TGI [24]: > 100 µM
TGI [25]: > 100 µM
TGI [26]: > 100 µM
TGI [27]: > 100 µM
TGI [28]: > 100 µM
TGI [29]: 95.2 µM
TGI [30]: > 100 µM
TGI [31]: > 100 µM
TGI [32]: > 100 µM
TGI [53]: > 100 µM
TGI [34]: > 100 µM
TGI [35]: > 100 µM
TGI [36]: > 100 µM
TGI [37]: > 100 µM
TGI [38]: > 100 µM
TGI [39]: > 100 µM
TGI [40]: 48.9 µM
TGI [54]: > 100 µM
TGI [41]: > 100 µM
TGI [59]: > 100 µM
TGI [42]: 58.3 µM
TGI [43]: 78.2 µM
TGI [55]: > 100 µM
TGI [56]: > 100 µM
TGI [44]: 64.2 µM
TGI [57]: > 100 µM
TGI [58]: > 100 µM
TGI [45]: > 100 µM
TGI [46]: > 100 µM
TGI [47]: > 100 µM
TGI [48]: > 100 µM
TGI [49]: > 100 µM
